In patent US20230000996A1, “RAPAFUCIN DERIVATIVE COMPOUNDS AND METHODS OF USE THEREOF” (The Johns Hopkins University, priority 2019, published 2023):

Test: Nucleoside uptake, single concentration assay (Rel.Uptake); cell line indicated in each table
Assay type: cell-based
Conditions: 293T cells; single concentration; response relative to DMSO
Description: Nucleoside Uptake Assay (uptake). Nuceloside uptake assays were performed with using 3H-Thymidine as described in Guo et al. (2018) Nat. Chem. 11:254-63. Specific cell lines are indicated in each assay and cultured in complete growth media. Activity is scored according to the IC50 values relative to DMSO control. “Low” indicates an IC50 greater than 600 nM, “Medium” indicates an IC50 between 300 nM and 600 nM “High” indicates an IC50 less than 300 nM. “Rel.Uptake” refers to uptake activity characterization relative to a single concentration assay. “Low” indicates a response greater than 0.6 times the activity relative to DMSO, “Medium” indicates a response between 0.6 and 0.3 times the activity relative to DMSO, “High” indicates a response less than 0.3 times the activity relative to DMSO.
With `COc1ccc(CC[C@H]2OC(=O)[C@@H]3CCCCN3C(=O)C(=O)C(C)(C)COC(=O)C=CCCN(C)C(=O)[C@H](CC(C)C)N(C)C(=O)[C@H]3CCCN3C(=O)[C@H](Cc3ccc(OCc4ccccc4)cc3)NC(=O)C(c3ccccc3)NC(=O)CCC(=O)Nc3cccc2c3)cc1OC` (stereo partly drawn) [Compound 1082] the “Rel. Uptake, 293T” value was “low”.

Same assay, conditions: nucleoside uptake, single concentration assay, 293T cells, response relative to DMSO
With `COc1ccc(CC[C@H]2OC(=O)[C@@H]3CCCCN3C(=O)C(=O)C(C)(C)COC(=O)C=CCCN(C)C(=O)[C@H](CC(C)C)N(C)C(=O)[C@H]3CCCN3C(=O)[C@H](Cc3ccc(CNC(=O)c4ccccc4)cc3)NC(=O)[C@H](c3ccccc3)NC(=O)CCC(=O)Nc3cccc2c3)cc1OC` [Compound 1585] the “Rel. Uptake, 293T” value was “High (“High” indicates a response less than 0.3 times the activity relative to DMSO)”.
For `COc1cc(OC)c(OC)cc1CC[C@H]1OC(=O)[C@@H]2CCCCN2C(=O)C(=O)C(C)(C)COC(=O)C=CCCN(C)C(=O)[C@@H](Cc2ccccc2)NC(=O)CN(C)C(=O)[C@@H](Cc2ccccc2)NC(=O)[C@H](Cc2ccc(O)cc2)N(C)C(=O)COc2cccc1c2` [Compound 1581], the “Rel. Uptake, 293T” value was “medium”.
For `CCCC[C@H]1C(=O)N[C@@H](Cc2ccc3ccccc3c2)C(=O)N(C)[C@@H](COC(C)(C)C)C(=O)NCC(=O)N(C)CCC=CC(=O)OCC(C)(C)C(=O)C(=O)N2CCCC[C@H]2C(=O)O[C@H](CCc2ccc(OC)c(OC)c2)c2cncc(c2)OCC(=O)N1C` [Compound 1565], the “Rel. Uptake, 293T” value was “low”.
With `COc1ccc(CC[C@H]2OC(=O)[C@@H]3CN(C(=O)OCC4c5ccccc5-c5ccccc54)CCN3C(=O)C(=O)C(C)(C)COC(=O)C=CCCN(C)C(=O)[C@@H](Cc3ccccc3)NC(=O)CN(C)C(=O)[C@@H](Cc3ccccc3)NC(=O)[C@H](Cc3ccc(O)cc3)N(C)C(=O)COc3cccc2c3)cc1OC` [Compound 1572] the “Rel. Uptake, 293T” value was “low”.
With `COc1ccc(CC[C@H]2OC(=O)[C@@H]3CCCCN3C(=O)C(=O)C(C)(C)CNC(=O)C=CCCN(C)C(=O)[C@H](CC(C)C)N(C)C(=O)[C@H]3CCCN3C(=O)[C@H](Cc3ccccc3)N(C)C(=O)C(c3ccccc3)NC(=O)CCC(=O)Nc3cccc2c3)cc1OC` (stereo partly drawn) [Compound 1555] the “Rel. Uptake, 293T” value was “high”.
In the case of `COc1ccc(CC[C@H]2OC(=O)[C@@H]3CCCCN3C(=O)C(=O)C(C)(C)COC(=O)C=CCCN(C)C(=O)[C@H](CC(C)C)N(C)C(=O)[C@H]3CCCN3C(=O)[C@H](Cc3ccc(NC(=O)Cc4cccnc4)cc3)NC(=O)[C@H](c3ccccc3)NC(=O)CCC(=O)Nc3cccc2c3)cc1OC` [Compound 1589], the “Rel. Uptake, 293T” value was “Low (“Low” indicates a response greater than 0.6 times the activity relative to DMSO)”.
In the case of `COc1ccc(CC[C@H]2OC(=O)[C@@H]3CCCCN3C(=O)C(=O)C(C)(C)COC(=O)C=CCCN(C)C(=O)[C@@H](Cc3ccccc3)NC(=O)CN(C)C(=O)[C@@H](Cc3ccccc3)NC(=O)[C@H](Cc3ccc(O)cc3)N(C)C(=O)COc3cc(F)cc2c3)cc1OC` [Compound 1576], the “Rel. Uptake, 293T” value was “medium”.
In the case of `COc1ccc(CC[C@H]2OC(=O)[C@@H]3CCCCN3C(=O)C(=O)C(C)(C)COC(=O)C=CCCN(C)C(=O)[C@@H](Cc3ccccc3)NC(=O)CN(C)C(=O)[C@@H](Cc3ccccc3)NC(=O)[C@H](Cc3ccc(O)cc3)N(C)C(=O)COc3cccc2c3)c(O)c1OC` [Compound 1584], the “Rel. Uptake, 293T” value was “low”.
In the case of `COc1ccc(CC[C@H]2OC(=O)[C@@H]3CCCCN3C(=O)C(=O)C(C)(C)COC(=O)C=CCCN(C)C(=O)[C@H](CC(C)C)N(C)C(=O)[C@H]3CCCN3C(=O)[C@H](Cc3ccc(CNC(=O)Cc4ccccc4)cc3)NC(=O)[C@H](c3ccccc3)NC(=O)CCC(=O)Nc3cccc2c3)cc1OC` [Compound 1586], the “Rel. Uptake, 293T” value was “Med”.
For `COc1ccc(CC[C@H]2OC(=O)[C@@H]3CNCCN3C(=O)C(=O)C(C)(C)COC(=O)C=CCCN(C)C(=O)[C@@H](Cc3ccccc3)NC(=O)CN(C)C(=O)[C@@H](Cc3ccccc3)NC(=O)[C@H](Cc3ccc(O)cc3)N(C)C(=O)COc3cccc2c3)cc1OC` [Compound 1573], the “Rel. Uptake, 293T” value was “low”.
With `COc1ccc(CC[C@H]2OC(=O)[C@@H]3CCCCN3C(=O)C(=O)C(C)(C)COC(=O)C=CCCN(C)C(=O)[C@H](CC(C)C)N(C)C(=O)[C@H]3CCCN3C(=O)[C@H](Cc3ccc(CNC(=O)CN(C)C)cc3)NC(=O)[C@H](c3ccccc3)NC(=O)CCC(=O)Nc3cccc2c3)cc1OC` [Compound 1587] the “Rel. Uptake, 293T” value was “Low (“Low” indicates a response greater than 0.6 times the activity relative to DMSO)”.
In the case of `CCCCCCNC(=O)Cc1ccc(C[C@@H]2NC(=O)[C@H](c3ccccc3)NC(=O)CCC(=O)Nc3cccc(c3)[C@@H](CCc3ccc(OC)c(OC)c3)OC(=O)[C@@H]3CCCCN3C(=O)C(=O)C(C)(C)COC(=O)C=CCCN(C)C(=O)[C@H](CC(C)C)N(C)C(=O)[C@H]3CCCN3C2=O)cc1` [Compound 1591], the “Rel. Uptake, 293T” value was “Med”.
In the case of `COc1ccc(CC[C@H]2OC(=O)[C@@H]3CN(C)CCN3C(=O)C(=O)C(C)(C)COC(=O)C=CCCN(C)C(=O)[C@@H](Cc3ccccc3)NC(=O)CN(C)C(=O)[C@@H](Cc3ccccc3)NC(=O)[C@H](Cc3ccc(O)cc3)N(C)C(=O)COc3cccc2c3)cc1OC` [Compound 1574], the “Rel. Uptake, 293T” value was “low”.
For `CCCC[C@H]1C(=O)N[C@@H](Cc2ccc3ccccc3c2)C(=O)N(C)[C@@H](COC(C)(C)C)C(=O)NCC(=O)N(C)CCC=CC(=O)OCC(C)(C)C(=O)C(=O)N2CCCC[C@H]2C(=O)O[C@H](CCc2ccc(OC)c(OC)c2)c2cccc(c2F)OCC(=O)N1C` [Compound 1563], the “Rel. Uptake, 293T” value was “high”.
With `COc1ccc(CC[C@H]2OC(=O)[C@@H]3CCCCN3C(=O)C(=O)C(C)(C)COC(=O)C=CCCN(C)C(=O)[C@H](CC(C)C)N(C)C(=O)[C@H]3CCCN3C(=O)[C@H](Cc3cccc(NC(C)=O)c3)NC(=O)[C@H](c3ccccc3)NC(=O)CCC(=O)Nc3cccc2c3)cc1OC` [Compound 1588] the “Rel. Uptake, 293T” value was “High (“High” indicates a response less than 0.3 times the activity relative to DMSO)”.
In the case of `COc1ccc(CC[C@H]2OC(=O)[C@@H]3CCCCN3C(=O)C(=O)C(C)(C)COC(=O)C=CCCN(C)C(=O)[C@H](CC(C)C)N(C)C(=O)[C@H]3CCCN3C(=O)[C@H](Cc3ccc(C(=O)NCCO)cc3)NC(=O)[C@H](c3ccccc3)NC(=O)CCC(=O)Nc3cccc2c3)cc1OC` [Compound 1558], the “Rel. Uptake, 293T” value was “high”.
In the case of `COc1ccc(CC[C@H]2OC(=O)[C@@H]3CCCCN3C(=O)C(=O)C(C)(C)COC(=O)C=CCCN(C)C(=O)[C@@H](Cc3ccccc3)NC(=O)CN(C)C(=O)[C@@H](Cc3ccccc3)NC(=O)[C@H](Cc3ccc(O)cc3)N(C)C(=O)COc3cccc2c3)c(OC)c1OC` [Compound 1577], the “Rel. Uptake, 293T” value was “medium”.
In the case of `COc1cc(CC[C@H]2OC(=O)[C@@H]3CCCCN3C(=O)C(=O)C(C)(C)COC(=O)C=CCCN(C)C(=O)[C@@H](Cc3ccccc3)NC(=O)CN(C)C(=O)[C@@H](Cc3ccccc3)NC(=O)[C@H](Cc3ccc(O)cc3)N(C)C(=O)COc3cccc2c3)cc(O)c1OC` [Compound 1567], the “Rel. Uptake, 293T” value was “medium”.
With `C=C1NCC(=O)N(C)CC/C=C\C(=O)OCC(C)(C)C(=O)C(=O)N2CCCC[C@H]2C(=O)O[C@H](CCc2ccc(OC)c(OC)c2)c2cccc(c2)NC(=O)CCC(=O)N(C)[C@@H](CC(C)C)C(=O)N[C@H](Cc2ccccc2)C(=O)N(C)[C@H]1[C@@H](C)CC` [Compound 1592] the “Rel. Uptake, 293T” value was “Low (“Low” indicates a response greater than 0.6 times the activity relative to DMSO)”.
In the case of `COc1ccc(CC[C@H]2OC(=O)[C@@H]3CCCCN3C(=O)C(=O)C(C)(C)COC(=O)C=CCCN(C)C(=O)[C@@H](Cc3ccccc3)NC(=O)CN(C)C(=O)[C@@H](Cc3ccccc3)NC(=O)[C@H](Cc3ccc(O)cc3)N(C)C(=O)COc3cccc2c3F)cc1OC` [Compound 1579], the “Rel. Uptake, 293T” value was “medium”.
